The target of one assay is AzoTag1. Nature of the assay: isothermal titration calorimetry. The format is binding. Conditions: 20 mM HEPES-NaOH, 150 mM NaCl, pH 7.5, 25 °C, 0.5% DMSO; one-site model. On the technique in general: In ITC the heat of successive injections is recorded.
The next assay addresses AzoTag16. Nature of the assay: isothermal titration calorimetry. The format is binding. Conditions: 20 mM HEPES-NaOH, 150 mM NaCl, pH 7.5, 25 °C, 0.8% DMSO; one-site model.

In the case of `CCNC(=O)c1cc(F)c(/N=N\c2c(F)cc(C(=O)NCCOCCOCC(=O)NC)cc2F)c(F)c1` [compound 1, cis-Et-FAzo], the Kd (usually the equilibrium constant for the complex coming apart) on AzoTag1 amounted to 805 ± 22.6 nM. For `CNC(=O)COCCOCCNC(=O)c1cc(F)c(/N=N\c2c(F)cc(C(=O)NCCC(=O)O)cc2F)c(F)c1` [compound 2, cis-Ca-FAzo], binding at AzoTag16 was characterised by a dissociation constant (Kd) of 14.03 ± 0.02 nM.
